Experiments:
[1] = tested on: Tgfβ1, Timp1, Timp2, Mmp3, Ggtp mRNA in rat liver; test: Q-RT-PCR of liver mRNA in DMN-treated rats; type: in vivo
Description: To gain additional information about the established animal model, Q-RT-PCR was used to evaluate the gene expression profile of transforming growth factor-1 (Tgfβ1), which is the strongest known inducer of fibrogenesis in the effector cells of hepatic fibrosis that can stimulate the adipocyte transformation (24-27). The same total RNA samples were used for both microarray and Q-RT-PCR analyses. RNA preparation and analysis were performed according to Affymetrix's (Santa Clara, Calif., U.S.A.) instructions. The TAQMAN® assays were conducted in triplicate for each sample, and a mean value was used for calculation of expression levels. To standardize the quantification of the target genes, 18S ribosomal RNA (18S rRNA) from each sample was quantified on the same plate with the target genes. […] The changes were in agreement with observations described in Jezequel A. M. et al. (14). In sum, these examinations support the DMN-induced rat hepatic fibrosis model.
To validate the microarray data, Q-RT-PCR analysis was performed for tissue inhibitor of metalloproteinase 1 (Timp1), tissue inhibitor of metalloproteinase 2 (Timp2), matrix metalloproteinase 3 (Mmp3) and gamma-glutamyl transpeptidase (Ggtp). These genes were chosen for validation because these genes occurred both in this GeneChip study and in previous studies.
Moreover, a good concordance based on the fold changes between microarray data and Q-RT-PCR results was observed. […] TAQMAN® assays were conducted in triplicate for each sample, and a mean value was used for calculation of expression levels (marked by the square). To standardize the quantification of the Timp1 transcript, 18S rRNA from each sample was quantified on the same plate as the target gene, as indicated by the log scale on the right side of plot. The expression levels of the two Timp1 transcripts, rc_AI169327_at and rc_AI169327_g_at (marked by a circle and a triangle, respectively), were set forth relative to the mean of all gene expression levels as indicated by the scale on the left side of plot.

[2] = tested on: Male Sprague-Dawley rats; test: Serum biochemical analysis in DMN-induced rat hepatic fibrosis model; type: in vivo; settings: DMN-treatment, mean ± SD; for PT (prothrombin time): rat blood; for ACP (acid phosphatase) / AFP (a-fetoprotein) / AKP (alkaline phosphatase) / Albumin / BUN (blood urea nitrogen) / Bilirubin (total bilirubin) / CHOL (cholesterol) / GOT (glutamic oxaloacetic transaminase) / GPT (glutamic pyruvic transaminase) / Globulin / LDH (lactate dehydrogenase): rat serum
Description: A rat hepatic fibrosis model was set up through the use of DMN. DMN is a potent hepatoxin that specifically targets the liver and can cause liver fibrosis. The histopathological changes resulting from DMN treatment involve the rapid deposition of collagen, the major protein of fibrosis and important to the process of cirrhosis. […] The DMN-induced liver fibrosis model was performed as described in Jezequel A. M. et al. (14). Male Sprague-Dawley rats (Slc:SD; Japan SLC, Shizuoka, Japan), weighing from 300 to 350 grams, were used in the experiments. To induce hepatic fibrosis over a six-week time course experiment, the rats were given DMN (Sigma, Saint Louis, Mo.), dissolved in normal saline, three consecutive days a week for the first three consecutive weeks at the dosage of 6.7 mg/kg per body weight by intraperitoneal injection. Injection time points are shown as inverted triangles in FIG. 1. Injections were at a much lower dosage than those used in other experiments where the dosage was 100 mg/kg/day. The higher dosage can cause toxicity in rat liver (21, 22).)
Two to seven rats at each time point were treated with either DMN or with an equal volume of normal saline without DMN as the control (26 DMN-treated rats and 24 control rats). Rats were weighed and sacrificed on days 11, 18, 25, 32, 39, and 46 (sacrifice time points are shown as triangles in FIG. 1A) respectively. These triangular time points were designated as weeks 1 through 6 (FIG. 1A).
The serum of each rat, 50 rats in total, was subjected to various biochemical examinations related to liver damages. Blood samples, collected from the animals at necropsy, were used to measure serum concentrations or activity of albumin, glutamic oxaloacetic transaminase (GOT), glutamic pyruvic transaminase (GPT), total bilirubin, alkaline phosphatase (AKP), acid phosphatases (ACP), α-fetoprotein (AFP), blood urea nitrogen (BUN), cholesterol (CHOL), lactate dehydrogenase (LDH), globulin, prothrombin time (PT) and blood platelets (PLT) using an Hitachi 747 and ACL 3000 clinical chemistry analyzer system (MYCO, Renton, Wash.). […] The thirteen serum markers identified in these experiments are the same serum markers for human liver fibrosis.

[3] = Q-RT-PCR, DMN-treated samples, data not shown

CN(C)N=O [DMN, Dimethylnitrosamine]
Tgfβ1 mRNA expression in liver vs controls ([1]; Q-RT-PCR, DMN-treated rat livers): higher level of mRNA expression | Ggtp expression [1, 3]: elevated | Mmp3 expression [1, 3]: elevated | Timp2 expression [1, 3]: elevated | Timp1 expression elevation in DMN-treated rats ([1]; both microarray and Q-RT-PCR experiments): over 20 fold | PT (prothrombin time) ([2]; 1-2 wk): 18 ± 4 (8) sec | PT (prothrombin time) ([2]; 3-4 wk): 20 ± 4 (9) sec | PT (prothrombin time) ([2]; 5-6 wk): 22 ± 5 (6) sec | ACP (acid phosphatase) ([2]; 1-2 wk): 1.9 ± 0.6 (4) mg/dl | AFP (a-fetoprotein) ([2]; 1-2 wk): 0.40 ± 0.19 (4) ng/dl | AKP (alkaline phosphatase) ([2]; 1-2 wk): 600.8 ± 93.0 (4) KA | Albumin ([2]; 1-2 wk): 3.9 ± 0.7 (7) g/dl | BUN (blood urea nitrogen) ([2]; 1-2 wk): 33 ± 4 (4) mg/dl | Bilirubin (total bilirubin) ([2]; 1-2 wk): 0.72 ± 0.53 (8) mg/dl | CHOL (cholesterol) ([2]; 1-2 wk): 77 ± 8 (4) mg/dl | GOT (glutamic oxaloacetic transaminase) ([2]; 1-2 wk): 661.5 ± 134.4 (8) U/l | GPT (glutamic pyruvic transaminase) ([2]; 1-2 wk): 459.5 ± 78.5 (8) U/l | Globulin ([2]; 1-2 wk): 6.7 ± 0.1 (2) g/dl | LDH (lactate dehydrogenase) ([2]; 1-2 wk): 414.8 ± 102.7 (4) IU/l | ACP (acid phosphatase) ([2]; 3-4 wk): 6.2 ± 1.1 (4) mg/dl | AFP (a-fetoprotein) ([2]; 3-4 wk): 0.38 ± 0.05 (4) ng/dl | AKP (alkaline phosphatase) ([2]; 3-4 wk): 668.3 ± 222.0 (3) KA | Albumin ([2]; 3-4 wk): 3.5 ± 0.6 (11) g/dl | BUN (blood urea nitrogen) ([2]; 3-4 wk): 36 ± 2 (4) mg/dl | Bilirubin (total bilirubin) ([2]; 3-4 wk): 1.01 ± 0.74 (11) mg/dl | CHOL (cholesterol) ([2]; 3-4 wk): 70 ± 13 (6) mg/dl | GOT (glutamic oxaloacetic transaminase) ([2]; 3-4 wk): 1006.1 ± 749.6 (11) U/l | GPT (glutamic pyruvic transaminase) ([2]; 3-4 wk): 566.6 ± 313.5 (11) U/l | Globulin ([2]; 3-4 wk): 5.0 ± 0.8 (4) g/dl | LDH (lactate dehydrogenase) ([2]; 3-4 wk): 562.0 ± 120.8 (3) IU/l | ACP (acid phosphatase) ([2]; 5-6 wk): 8.2 ± 0.6 (2) mg/dl | AFP (a-fetoprotein) ([2]; 5-6 wk): 0.35 ± 0.07 (2) ng/dl | AKP (alkaline phosphatase) ([2]; 5-6 wk): 468 ± 12.7 (2) KA | Albumin ([2]; 5-6 wk): 3.2 ± 0.1 (7) g/dl | BUN (blood urea nitrogen) ([2]; 5-6 wk): 31 ± 5 (2) mg/dl | Bilirubin (total bilirubin) ([2]; 5-6 wk): 1.13 ± 1.00 (7) mg/dl | CHOL (cholesterol) ([2]; 5-6 wk): 67 ± 18 (5) mg/dl | GOT (glutamic oxaloacetic transaminase) ([2]; 5-6 wk): 1572.9 ± 965.3 (7) U/l | GPT (glutamic pyruvic transaminase) ([2]; 5-6 wk): 763.6 ± 405.2 (7) U/l | Globulin ([2]; 5-6 wk): 3.6 ± 0.3 (2) g/dl | LDH (lactate dehydrogenase) ([2]; 5-6 wk): 853.5 ± 91.2 (2) IU/l

Source: US7972785B2, “Biomarkers for liver fibrotic injury” (Industrial Technology Research Institute (ITRI), priority 2006, dated 2011)
